Each block holds one compound with its values, some of them ahead of it.
What was measured:
Serum [1] = test: Metabolic stability in Sprague-Dawley rat serum assessed as formation of (S)-(N,N-dimethylphenylalanyl)-(2S,3S)-3[(p-formylphenoxyl)leucyl]-(S)-leucine) after 30 mins by HPLC; assay type: ADME, cell-free; conditions: 0.5 h
[2] = Metabolic stability in Sprague-Dawley rat gastric juice assessed as formation of (S)-(N,N-dimethylphenylalanyl)-(2S,3S)-3[(p-formylphenoxyl)leucyl]-(S)-leucine) after 30 mins by HPLC; assay type: ADME, tissue-based; conditions: 0.5 h
[3] = Metabolic stability in Sprague-Dawley rat intestinal fluid assessed as formation of (S)-(N,N-dimethylphenylalanyl)-(2S,3S)-3[(p-formylphenoxyl)leucyl]-(S)-leucine) after 30 mins by HPLC; assay type: ADME; conditions: simulated gi fluid, 0.5 h
Serum [4] = test: Metabolic stability in Sprague-Dawley rat serum assessed as formation of (S)-(N,N-dimethylphenylalanyl)-(2S,3S)-3[(p-formylphenoxyl)leucyl]-(S)-leucine) after 5 mins by HPLC; assay type: ADME, cell-free
Serum [5] = test: Metabolic stability in mouse serum assessed as formation of (S)-(N,N-dimethylphenylalanyl)-(2S,3S)-3[(p-formylphenoxyl)leucyl]-(S)-leucine) after 1 hr by HPLC; assay type: ADME, cell-free
Serum [6] = test: Metabolic stability in human serum assessed as formation of (S)-(N,N-dimethylphenylalanyl)-(2S,3S)-3[(p-formylphenoxyl)leucyl]-(S)-leucine) after 1 hr by HPLC; assay type: ADME, cell-free
Serum [7] = test: Metabolic stability in bovine serum assessed as formation of (S)-(N,N-dimethylphenylalanyl)-(2S,3S)-3[(p-formylphenoxyl)leucyl]-(S)-leucine) after 1 hr by HPLC; assay type: ADME, cell-free, Bos taurus; conditions: cattle
Serum [8] = test: Metabolic stability in Sprague-Dawley rat serum assessed as formation of (S)-(N,N-dimethylphenylalanyl)-(2S,3S)-3[(p-formylphenoxyl)leucyl]-(S)-leucine) at 50 mg/kg, po after 30 mins by HPLC; assay type: ADME, organism-based; set-up: dose 50 mg/kg, route oral; conditions: in vivo, 0.5 h
Serum [9] = test: Metabolic stability in Sprague-Dawley rat serum assessed as formation of (S)-(N,N-dimethylphenylalanyl)-(2S,3S)-3[(p-formylphenoxyl)leucyl]-(S)-leucine) at 25 mg/kg, po after 10 mins by HPLC; assay type: ADME, organism-based; set-up: dose 25 mg/kg, route oral; conditions: in vivo
Serum [10] = test: Metabolic stability in Sprague-Dawley rat serum assessed as initial rate of compound cleavage at 0.10 mM after 10 mins by HPLC; assay type: ADME, cell-free; conditions: 100 µM
Serum [11] = test: Metabolic stability in Sprague-Dawley rat serum assessed as initial rate of compound cleavage at 0.10 mM after 10 mins by HPLC in presence of 2 mM (phenylmethyl)sulfonyl fluoride; assay type: ADME, cell-free; conditions: 100 µM
Serum [12] = test: Metabolic stability in Sprague-Dawley rat serum assessed as initial rate of compound cleavage at 0.10 mM after 10 mins by HPLC in presence of 2 mM EDTA; assay type: ADME, cell-free; conditions: 100 µM
Serum [13] = test: Metabolic stability in Sprague-Dawley rat serum assessed as initial rate of compound cleavage at 0.10 mM after 10 mins by HPLC in presence of 2 mM p-chloromercuribenzoic acid; assay type: ADME, cell-free; conditions: 100 µM
Serum [14] = test: Metabolic stability in Sprague-Dawley rat serum assessed as initial rate of compound cleavage at 0.10 mM after 10 mins by HPLC in presence of 2 mM bis-(p-nitrophenyl) phosphate; assay type: ADME, cell-free; conditions: 100 µM
Serum [15] = test: Metabolic stability in Sprague-Dawley rat serum assessed as initial rate of compound cleavage at 0.10 mM after 10 mins by HPLC in presence of 2 mM eserine; assay type: ADME, cell-free; conditions: 100 µM
Serum [16] = test: Metabolic stability in Sprague-Dawley rat serum assessed as initial rate of compound cleavage at 0.10 mM after 10 mins by HPLC in presence of 10 uM eserine; assay type: ADME, cell-free; conditions: 100 µM
Serum [17] = test: Metabolic stability in Sprague-Dawley rat serum up to 3 hrs; assay type: ADME, cell-free

Activity (Serum [1]): Stable
Structure (SMILES): CO[C@H]1CNC(=O)[C@H](CC(C)C)NC(=O)[C@@H](NC(=O)[C@H](Cc2ccccc2)N(C)C)[C@H](C(C)C)Oc2ccc1cc2 [SANJOININE D]

Activity (Serum [1]): Stable
Structure (SMILES): CC(C)C[C@@H]1NC(=O)[C@@H](NC(=O)[C@H](Cc2ccccc2)N(C)C)[C@H](C(C)C)Oc2ccc(cc2)[C@@H](O)CNC1=O [SANJOININE G1]

The next lines start with the compound.

Structure (SMILES): CC(C)C[C@@H]1NC(=O)[C@@H](NC(=O)[C@H](Cc2ccccc2)N(C)C)[C@H](C(C)C)Oc2ccc(cc2)CCNC1=O [DIHYDROSANJOININE A]
Activity (Serum [1]): Stable

Structure (SMILES): CC(C)C[C@@H]1NC(=O)[C@@H](NC(=O)[C@H](Cc2ccccc2)N(C)C)[C@H](C(C)C)Oc2ccc(cc2)/C=C\NC1=O [FRANGUFOLINE]
Stability [2]: Stable
Stability [3]: Stable
Stability (Serum [4]): Unstable
Stability (Serum [5]): Unstable
Stability (Serum [6]): Stable
Stability (Serum [7]): Stable
Stability (Serum [8]): Unstable
Stability (Serum [9]): Unstable
Stability (Serum [1]): Unstable
Stability (Serum [10]): 1.44 pmol/min/mg
Stability (Serum [11]): 1.3 pmol/min/mg
Stability (Serum [12]): 0.376 pmol/min/mg
Stability (Serum [13]): 1.34 pmol/min/mg
Stability (Serum [14]): 0.116 pmol/min/mg
Stability (Serum [15]): 0.352 pmol/min/mg
Stability (Serum [16]): 1.24 pmol/min/mg
Stability (Serum [17]): Stable

Structure (SMILES): CC(C)C[C@H]1NC(=O)[C@@H](NC(=O)[C@H](Cc2ccccc2)N(C)C)[C@H](C(C)C)Oc2ccc(cc2)/C=C\NC1=O [SANJOININE AH1]
Activity (Serum [1]): Unstable

— ChEMBL document CHEMBL1145723, “Metabolic cleavage of frangufoline in rodents: in vitro and in vivo study” (J Nat Prod, 1997)
